Assay results as given in US4508716A, “[1,2]-Fused 1,4-benzodiazepine compounds, process for their preparation and compositions containing them” (Kali-Chemie Pharma GmbH, priority 1981, dated 1985).

How the values were obtained:
hexobarbital anaesthesia = assay: Test for the central nervous system sedating properties: prolongation of the duration of hexobarbital anaesthesia in mice; format: in vivo; details: male mice, 60 min before hexobarbital sodium 50 mg/kg i.v.
[1] = system: apomorphine-induced climbing behaviour; assay: Test for neuroleptic properties: inhibition of apomorphine-induced climbing behaviour in mice; format: in vivo; details: Mus musculus, male NMR1 mice, 60 min before apomorphine 1.0 mg/kg s.c.; for inhibition in vivo at 2.2 mg/kg: dose 2.2 mg/kg peroral
Protocol: 2. Test for neuroleptic properties
Determination of the effective dose for inhibiting apomorphine-induced climbing behaviour in mice (modified method of P. Protais et al., Psychopharmacology 50, (1976), 1-6).
Groups each containing 10 male NMR1 mice of 18-24 g. body weight are used per test dose. The test substance is administered perorally, as a suspension in […] "Tylose" solution.
After 60 minutes, the animals are each injected subcutaneously with 1.0 mg./kg. of apomorphine, and immediately after the injection, each animal is placed under a vertical wire mesh cylinder (diameter 13 cm., height 16 cm., closed at the top). After 10, 20 and 30 minutes, the climbing behaviour of the animals is evaluated in accordance with the following point system:
0 points=no paw on the mesh
1 point=one or two paws touching the mesh
2 points=three or all paws gripping the mesh, or climbing
For each test group, the sum of the points (maximum number of points=20) at the three test times is determined, and the average of the 3 values is taken for calculating the inhibition of climbing behaviour effected by the test substance.
In the table which follows, the inhibiting action is given in % inhibition in comparison with the climbing behaviour of a control group which was not treated with the test substance.

[2] = Acute toxicity (acute 7-day toxicity following a single oral administration, LD50 by probit analysis); details: mouse, in vivo, NMR1 mice
Protocol: The acute 7-day toxicity is determined following a single oral administration to white, fasting NMR1 mice, and the LD50 value is calculated by electronic data processing, by probit analysis.

CCOc1ccc2c(c1)C(c1ccn(C)c1)=NCC1CN(C)CCN21 (centres unmarked) [Example 41]
Prolongation of the duration of hexobarbital anaesthesia, prolongation factor (hexobarbital anaesthesia; dose 43.8 mg/kg peroral): 1.6 | inhibition in vivo at 13.9 mg/kg ([1]; dose 13.9 mg/kg peroral): 14%

C=CCN1CCN2c3ccccc3C(c3cccs3)=NCC2C1 (centres unmarked) [Example 70]
Prolongation of the duration of hexobarbital anaesthesia, prolongation factor (hexobarbital anaesthesia; dose ≤39.6 mg/kg peroral): 0 | inhibition in vivo at 2.2 mg/kg [1]: 36% | LD50 at 168 h [2]: ~790 mg/kg

CC(C)CCN1CCN2c3ccccc3C(c3cccs3)=NCC2C1 (centres unmarked) [Example 74]
Prolongation of the duration of hexobarbital anaesthesia, prolongation factor (hexobarbital anaesthesia; dose 33.0 mg/kg peroral): 2.0 | inhibition in vivo at 3.3 mg/kg ([1]; dose 3.3 mg/kg peroral): 70% | LD50 at 168 h [2]: ~730 mg/kg

Cc1ccc2c(c1)C(c1ccco1)=[N+]([O-])CC1CN(C)CCN21 (centres unmarked) [Example 35]
Prolongation of the duration of hexobarbital anaesthesia, prolongation factor (hexobarbital anaesthesia; dose 9.8 mg/kg peroral): 2.1 | inhibition in vivo at 9.8 mg/kg ([1]; dose 9.8 mg/kg peroral): 35% | LD50 at 168 h [2]: > 311 mg/kg

Cc1ccc2c(c1)C(c1ccc(Br)s1)=NCC1COCCN21 (centres unmarked) [Example 22]
Prolongation of the duration of hexobarbital anaesthesia, prolongation factor (hexobarbital anaesthesia; dose 37.7 mg/kg peroral): 1.5 | inhibition in vivo at 8.1 mg/kg ([1]; dose 8.1 mg/kg peroral): 50% | LD50 at 168 h [2]: > 811 mg/kg

CN1CCN2c3ccccc3C(c3cccs3)=NCC2C1 (centres unmarked) [Example 4, 1,2,3,4,4a,5-Hexahydro-3-methyl-7-(2-thienyl)-pyrazino[1,2-a][1,4]benzodiazepine]
Prolongation of the duration of hexobarbital anaesthesia, prolongation factor (hexobarbital anaesthesia; dose ≤13.8 mg/kg peroral): 0 | inhibition in vivo at 2.9 mg/kg ([1]; dose 2.9 mg/kg peroral): 70% | LD50 at 168 h [2]: ~440 mg/kg

CN1CCN2c3ccc(Cl)cc3C(c3cccn3C)=NCC2C1 (centres unmarked) [Example 9, 1,2,3,4,4a,5-Hexahydro-9-chloro-3-methyl-7-[2-(N-methyl)-pyrrolyl]-pyrazino[1,2-a][1,4]benzodiazepine]
Prolongation of the duration of hexobarbital anaesthesia, prolongation factor (hexobarbital anaesthesia; dose ≤41.5 mg/kg peroral): 0 | inhibition in vivo at 4.2 mg/kg ([1]; dose 4.2 mg/kg peroral): 48% | LD50 at 168 h [2]: > 893 mg/kg

Cc1cc(C)c2c(c1)N1CCOCC1CN=C2c1cccs1 (centres unmarked) [Example 63]
Prolongation of the duration of hexobarbital anaesthesia, prolongation factor (hexobarbital anaesthesia; dose 67.2 mg/kg peroral): 1.5 | inhibition in vivo at 21.3 mg/kg ([1]; dose 21.3 mg/kg peroral): 11%

COc1ccc2c(c1)N1CCN(C)CC1CN=C2c1cccs1 (centres unmarked) [Example 51]
Prolongation of the duration of hexobarbital anaesthesia, prolongation factor (hexobarbital anaesthesia; dose 22.3 mg/kg peroral): 1.9 | inhibition in vivo at 2.2 mg/kg [1]: 57% | LD50 at 168 h [2]: > 704 mg/kg

CCN1CCN2c3ccccc3C(c3cccs3)=NCC2C1 (centres unmarked) [Example 69]
Prolongation of the duration of hexobarbital anaesthesia, prolongation factor (hexobarbital anaesthesia; dose ≤28.0 mg/kg peroral): 0 | inhibition in vivo at 0.7 mg/kg ([1]; dose 0.7 mg/kg peroral): 71% | LD50 at 168 h [2]: ~420 mg/kg

CN1CCN2c3cc(F)ccc3C(c3cccs3)=NCC2C1 (centres unmarked) [Example 55]
Prolongation of the duration of hexobarbital anaesthesia, prolongation factor (hexobarbital anaesthesia; dose 6.8 mg/kg peroral): 1.3 | inhibition in vivo at 0.2 mg/kg ([1]; dose 0.2 mg/kg peroral): 47% | LD50 at 168 h [2]: > 315 mg/kg

Cc1ccc2c(c1)C(c1ccco1)=NCC1CN(C)CCN21 (centres unmarked) [Example 10a, 1,2,3,4,4a,5-Hexahydro-3,9-dimethyl-7-(2-furyl)-pyrazino[1,2-a][1,4]benzodiazepine]
Prolongation of the duration of hexobarbital anaesthesia, prolongation factor (hexobarbital anaesthesia; dose ≤42.2 mg/kg peroral): 0 | inhibition in vivo at 13.3 mg/kg ([1]; dose 13.3 mg/kg peroral): 31% | LD50 at 168 h [2]: > 422 mg/kg

Cc1cc(C)c2c(c1)N1CCSCC1CN=C2c1cccs1 (centres unmarked) [Example 65]
inhibition in vivo at 22.4 mg/kg ([1]; dose 22.4 mg/kg peroral): 12%

COc1ccc2c(c1)N1CCN(C)CC1C[N+]([O-])=C2c1ccco1 (centres unmarked) [Example 36]
Prolongation of the duration of hexobarbital anaesthesia, prolongation factor (hexobarbital anaesthesia; dose ≤70.4 mg/kg peroral): 0 | inhibition in vivo at 22.3 mg/kg ([1]; dose 22.3 mg/kg peroral): 34% | LD50 at 168 h [2]: > 704 mg/kg
